In article PMC12163822, “Synthesis and Pharmacological Characterization of a Novel Cannabinoid Receptor 1 Antagonist” (ACS Omega, 2025):
Entries after “also recorded” stand apart in the source; their conditions may differ. Read-outs that look alike come from different tables or passages of the source.

Tests used:
human CB2 receptor = molecular target: T1, human CB2 receptor (Homo sapiens, UniProt P34972); assay: [3H]CP55,940 inhibition curves in membranes from CHO cells overexpressing human CB2; assay type: binding
T1 construct: purchased Sigma-Aldrich; host or cells: CHO cells
Method: Membrane homogenates from CHO cells overexpressing human CB1 and CB2 receptors, as well as matched wild-type cells, were used to test newly synthesized compounds and were acquired from Sigma-Aldrich (St Louis, MO, USA).
(§1) To stop the reaction, an ice-cold wash buffer (50 mM Tris–HCl and 0.5% BSA, pH 7.4) was added. Then, the membranes were retained by vacuum filtration to a Whatman GF/C glass microfiber filter (Sigma-Aldrich, St. Louis, MO, USA) and the free radioligand was discarded. Filters with the bound radioligand were transferred to vials containing 5 mL of Ultima Gold cocktail (Revvity, Boston, MA, USA) and measured with a Packard Tri-Carb 2200CA liquid scintillation counter (Revvity, Boston, MA, USA).
A concentration of 0.02 mg/mL of commercial WT (as control) and CB1 and CB2 overexpressing CHO cells were used, and the same protocol described above was followed. Rat spleen homogenates were also used at a concentration of 0.1 mg/mL as a further characterization of binding to the CB2 receptor, given the high expression of this receptor in this tissue and the practical lack of CB1 in it.

CB1 receptor = CB1 receptor (Rattus norvegicus, UniProt P20272); assay: [35S]GTPγS functional binding assay in rat cortex membrane homogenates; assay type: biochemical; parameters: functional assays in membrane homogenates from the rat cortical tissue; from tissue; host or cells: Sprague-Dawley rat brain cortex
Method: The compound with the best affinity was also tested using functional [^35S]-GTPγS binding assays to characterize its activity as an agonist or antagonist/inverse agonist. A protein concentration of 0.1 mg/mL of rat cortex homogenates and a protein concentration of 0.02 mg/mL of commercial CB1 overexpressing CHO cells were used for these assays, suspended in a reaction buffer (Tris–HCl 50 mM, EGTA 1 mM, MgCl2 3 mM, NaCl 100 mM, 0.5% BSA; pH 7.4). The target compound was used in concentrations ranging from 10^–11 to 10^–4 M and incubated for 2 h at 37 °C with agitation in the presence of 0.5 nM [^35S]-GTPγS and 50 μM GDP. Basal coupling of [^35S]-GTPγS to Gi/o proteins was determined by incubating the membrane aliquots with the radioligand in the absence of the target compound. To define nonspecific binding, 10 μM of unlabeled GTPγS was added to the incubation.

CB2 receptor = molecular target: T2, CB2 receptor (Rattus norvegicus, UniProt Q9QZN9); assay: [3H]CP55,940 inhibition curves in rat spleen membrane homogenates (CB2-enriched); assay type: binding, Sprague-Dawley rat
T2 construct: from tissue; host or cells: Sprague-Dawley rat spleen
T2 sequence (Q9QZN9 1-360): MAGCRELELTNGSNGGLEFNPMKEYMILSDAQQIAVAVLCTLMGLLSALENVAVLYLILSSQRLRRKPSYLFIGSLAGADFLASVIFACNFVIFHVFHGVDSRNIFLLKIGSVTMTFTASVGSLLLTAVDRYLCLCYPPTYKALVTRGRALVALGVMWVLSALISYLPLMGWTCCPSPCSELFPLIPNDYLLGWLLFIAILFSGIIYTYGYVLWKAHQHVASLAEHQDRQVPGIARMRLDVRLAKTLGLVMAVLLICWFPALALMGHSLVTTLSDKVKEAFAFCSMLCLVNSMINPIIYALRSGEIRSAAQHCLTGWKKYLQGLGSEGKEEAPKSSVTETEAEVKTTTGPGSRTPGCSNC
Method: (§2) Sprague–Dawley rats (n = 5) were anesthetized and sacrificed by decapitation. Spleens and brains were then quickly removed by dissection at 4 °C, and in the case of the brain tissue, the cortex was dissected for the preparation of the membrane homogenates. For this procedure, spleen and cortex samples were homogenized using a Teflon-glass grinder (15 up-and-down strokes at 800 rpm) in 30 volumes of homogenization buffer (1 mM EGTA, 3 mM MgCl2, 50 mM Tris–HCl; pH 7.4) supplemented with […], at 4 °C. The obtained homogenates were centrifuged for 5 min at 1500 rpm. Pellets were removed, and supernatants were centrifuged again for 15 min at 14,000 rpm. For washing, the obtained pellets were resuspended in a buffer and centrifuged again, and the supernatant was removed. The resulting aliquots were stored at −80 °C until use.
To stop the reaction, an ice-cold wash buffer (50 mM Tris–HCl and 0.5% BSA, pH 7.4) was added. Then, the membranes were retained by vacuum filtration to a Whatman GF/C glass microfiber filter (Sigma-Aldrich, St. Louis, MO, USA) and the free radioligand was discarded. Filters with the bound radioligand were transferred to vials containing 5 mL of Ultima Gold cocktail (Revvity, Boston, MA, USA) and measured with a Packard Tri-Carb 2200CA liquid scintillation counter (Revvity, Boston, MA, USA). […]

cannabinoid receptors = assay: [3H]CP55,940 competition binding in rat brain cortex membrane homogenates; parameters: species or system Sprague-Dawley rat; settings: for IC50: vs [3H]CP55,940, rat brain cortex membranes
Method: as §2, §1
Data from radioligand affinity assays were analyzed by using nonlinear regression. A comparison of fits was performed for every curve and the preferred model (one site vs two sites) was chosen in each case. Curves were fitted to the pooled data from multiple experiments. For the evaluation of data from autoradiographic assays, the Kruskal–Wallis test followed by Dunn’s post hoc tests for multiple comparisons was performed. For statistical significance, the threshold was set at p = 0.05. The number of replicates or animal sample number used in each case is stated in the figure legends. GraphPad Prism 9 (GraphPad Software) was employed for data analysis and presentation.

CB1 receptor, sequence (P20272 whole entry): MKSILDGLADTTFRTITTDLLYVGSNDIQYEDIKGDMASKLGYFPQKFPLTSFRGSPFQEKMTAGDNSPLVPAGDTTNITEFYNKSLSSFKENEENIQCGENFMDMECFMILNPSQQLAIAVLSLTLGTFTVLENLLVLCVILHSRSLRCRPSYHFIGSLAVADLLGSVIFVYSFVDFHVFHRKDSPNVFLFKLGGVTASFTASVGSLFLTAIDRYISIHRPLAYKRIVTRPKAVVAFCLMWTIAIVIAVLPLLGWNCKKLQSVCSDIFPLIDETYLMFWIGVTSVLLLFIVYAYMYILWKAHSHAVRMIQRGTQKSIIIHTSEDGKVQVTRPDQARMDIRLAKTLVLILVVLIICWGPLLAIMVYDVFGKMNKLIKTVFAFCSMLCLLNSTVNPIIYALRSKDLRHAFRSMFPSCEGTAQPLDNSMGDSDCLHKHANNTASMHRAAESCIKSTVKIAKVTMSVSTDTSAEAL
T1 sequence (P34972 whole entry): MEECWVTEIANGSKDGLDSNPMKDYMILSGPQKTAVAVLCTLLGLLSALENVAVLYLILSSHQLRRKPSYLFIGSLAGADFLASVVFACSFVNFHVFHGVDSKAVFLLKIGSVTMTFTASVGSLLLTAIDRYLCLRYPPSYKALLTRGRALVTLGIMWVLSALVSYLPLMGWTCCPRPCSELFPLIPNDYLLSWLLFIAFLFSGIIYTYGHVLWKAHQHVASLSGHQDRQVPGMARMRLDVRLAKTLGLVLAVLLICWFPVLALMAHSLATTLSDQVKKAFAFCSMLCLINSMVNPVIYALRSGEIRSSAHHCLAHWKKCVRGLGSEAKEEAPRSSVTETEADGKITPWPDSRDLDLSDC

CCOC(=O)/C=C1\C(=O)Nc2ccc(C)cc2-c2c1c1cc(OC)ccc1n2C(=O)OCC [UVI3502]
IC50 (human CB2 receptor): 16200 ± 131 nM
maximum inhibition of [3H]CP55,940 binding (human CB2 receptor; CB2 overexpressing CHO membranes): approximately 83%
stimulation of [35S]GTPγS binding (coupling of CB1 to Gi/o proteins) (CB1 receptor; rat cortex membrane homogenates, result in words): does not; also recorded: did not stimulate the coupling of CB1 receptors to Gi/o proteins
EC50 (CB1 receptor; slight decrease of baseline [35S]GTPγS binding, rat brain cortex membrane homogenates): 4.06 ± 3.27 nM
IC50 (CB2 receptor): 10230 ± 17.8 nM
maximum inhibition of [3H]CP55,940 binding (CB2 receptor; rat spleen membrane homogenates): ~61%
IC50 (cannabinoid receptors; high-affinity site of two-site fit, read-out: IC50Hi): 0.026 nM
IC50 (cannabinoid receptors; low-affinity site of two-site fit, read-out: IC50Lo): 772 ± 49.4 nM
inhibition of [3H]CP55,940 binding corresponding to the high-affinity binding site (cannabinoid receptors; rat cortex membranes): approximately 18%
inhibition of [3H]CP55,940 binding corresponding to the low-affinity binding site (cannabinoid receptors; rat cortex membranes): ~40%
total inhibition of [3H]CP55,940 binding (cannabinoid receptors; rat cortex membranes): about 58%
affinity for cannabinoid receptors (inhibition of [3H]CP55,940 binding) (cannabinoid receptors; rat cortex membranes, result in words): showed affinity for cannabinoid receptors
